Publication PMC9024338, “Bruceine H Mediates EGFR-TKI Drug Persistence in NSCLC by Notch3-Dependent β-Catenin Activating FOXO3a Signaling” (Frontiers in Oncology, 2022)
Where two headings read alike, the source gives them in different places.

What was measured:
[1] = test system: A549 cells; test: cells; assay type: cell-based, human; conditions: Homo sapiens
Description: (§1) The human NSCLC cell lines (A549, PC-9, and PC-9/GR) and other cell lines (16HBE and LO2) were purchased from the American Type Culture Collection (ATCC, Manassas, VA, USA). […] All cell lines were cultivated at 37°C under 5% CO2.
(§2) The Cell Counting Kit-8 assays (Beyotime, Shanghai, China) were performed to assess cell viability. […] Microplate readers (Infinite F500, Tecan, Mannedorf, Switzerland) were used to measure the absorbance (A) at 450 nm. All samples were assessed in triplicate.

[2] = test system: PC-9 cells; test: cells; assay type: cell-based, human; conditions: Homo sapiens
Description: as §1, §2

[3] = test system: A549 cells; test: Wound healing assay for migration; assay type: cell-based, human; conditions: 4 μM, 48 h
Description: A549 cells (3 × 10^5/ml/well) were seeded into a six-well plate. After overnight culture, when the fusion rate reached 95%–100%, the sterile pipette tip was perpendicular to the plate plane, and a straight wound was drawn on the cell monolayer. Following treatment with BD or BH, the migration of the cells was examined under a microscope (×4, Nikon, Tokyo, Japan), and pictures were obtained at 0 and 48 h. The computation of the cell migration formula is as follows: relative migration area (%) = (0 h wound area – 48 h wound area)/0 h wound area × 100%.

[4] = test system: A549 cells; test: Transwell migration and Matrigel invasion assays; assay type: cell-based, human; conditions: dose-dependent, 12 h treatment
Description: The Transwell insert in a 24-well plate (8 μm, Corning, NY, USA) was taken out, and a 600-μl medium containing 10% FBS was added to the bottom chamber. The A549 cells were resuspended with 10% FBS culture medium, and the diluted cell suspension (3 × 10^5/300 μl) was cultured in the top chamber and then incubated with or without Matrigel (BD BioCoat). After 12 h, the medium in the top chamber was changed to RPMI-1640 without FBS, and BD or BH with different concentrations was added ([31]). After an additional 12 h, the cells that migrated or invaded the bottom side of the polycarbonate film were fixed with methanol for 30 min and then stained for 15 min with 0.1% crystal violet (Solarbio), after which their number was assessed under a microscope (×4, Nikon).

[5] = test system: A549 cells; test: Apoptosis by flow cytometry (Annexin V-FITC/PI), A549; assay type: cell-based, human; conditions: A549, 48 h, various concentrations, relative to control
Description: (§3) After being digested with trypsin without EDTA, the cells were washed gently with culture medium and twice with cold PBS. The pellet was resuspended in 400 μl of 1× binding buffer, the resuspended cells were transferred to flow tubes, then Annexin V-FITC (5 μl) and propidium iodide (10 μl) were added, and the mixture was incubated for 15 min at room temperature in the dark. The percentage of apoptotic cells was determined by flow cytometry (Backman, CA, USA) and FlowJo V10 software.

[6] = test system: PC-9 cells; test: Apoptosis by flow cytometry (Annexin V-FITC/PI), PC-9; assay type: cell-based, human; conditions: PC-9, 48 h, various concentrations, relative to control
Description: as §3

[7] = test system: 16HBE cells; test: Toxicity to normal human cell line 16HBE (Figure S1); assay type: cell-based
Description: Figure S1. The toxicity of Bruceine H (BH) and Bruceine D (BD) to 16HBE (A) and LO2 (B) cells was evaluated.

[8] = test system: PC-9/GR xenografts; test: PC-9/GR xenografts in BALB/c nude mice; assay type: in vivo; conditions: BH 2.5 mg/kg, gefitinib 25 mg/kg, alone or co-administered, intragastric
[9] = Toxicity study in nude mice: organ index, blood routine, serum biochemistry; assay type: in vivo
Description: At the end of the experiment, blood samples were taken and analyzed by blood routine. […] The lungs and spleen were weighed and recorded. H&E staining of the heart, liver, spleen, lungs, and kidneys was performed to evaluate the cytotoxic effects of BH.

[10] = nude mice serum, mean ± SD (Table S4)
[11] = nude mice, routine blood (Table S3)
[12] = nude mice, Gef 25, BH 2.5, Gef + BH 25 + 2.5 mg×kg^-1×d^-1, X±S

SMILES: CC1=CC(=O)[C@@H](O)[C@]2(C)[C@H]3[C@@H](O)[C@H](O)[C@@]4(CO)OC[C@@]35[C@@H](C[C@@H]12)OC(=O)[C@H](O)[C@]54O [BH, Bruceine H]
- IC50 ([1]; A549, 24 h, Figure 2A, read-out: IC50 (24h)): 44.4 µM
- IC50 ([1]; A549, 48 h, read-out: IC50 (48 h)): 25.5 µM
- IC50 ([2]; PC-9, 24 h, Figure 2A, read-out: IC50 (24h)): 55.4 µM
- IC50 ([2]; PC-9, 48 h, read-out: IC50): 12.6 µM
- migration of A549 cells (wound healing) [3]: impaired
- Transwell migration and invasion of A549 [4]: significant anti-invasive and antimigratory actions
- early apoptosis rate [5]: increased
- late apoptotic rate [6]: increased
- toxicity to 16HBE cells [7]: no apparent toxicity
- tumor growth of PC-9/GR xenografts [8]: slight inhibitory effect
- HDL-C [9, 10]: 1.14 ± 0.18 mmol/L
- LDL-C [9, 10]: 1.40 ± 0.08 mmol/L
- TC [9, 10]: 3.25 ± 0.21 mmol/L
- TG [9, 10]: 0.70 ± 0.16 mmol/L
- GR [9, 11]: 3.36±2.394 ×10^9/L
- GR (%) [9, 11]: 80.567±11.274%
- HCT [9, 11]: 62.867±5.658%
- HGB [9, 11]: 172.333 ± 12.014 g/L
- LY [9, 11]: 0.920±0.401 ×10^9/L
- LY (%) [9, 11]: 14.7±6.165%
- MCH [9, 11]: 15.567 ± 0.289 pg
- MCHC [9, 11]: 296.333 ± 10.970 g/L
- MCV [9, 11]: 52.567 ± 1.823 fL
- MO [9, 11]: 0.242±0.045 ×10^9/L
- MO (%) [9, 11]: 5.043±1.086%
- MPV [9, 11]: 7.267 ± 0.208 fL
- PCT [9, 11]: 0.753±0.195 mL/L
- PLT [9, 11]: 1030±241.156 ×10^9/L
- RBC [9, 11]: 13.193±1.792 ×10^12/L
- WBC [9, 11]: 6.633±2.371 ×10^8/L
- Lung index [9, 12]: 32.463 ± 2.078 g/kg
- Spleen index [9, 12]: 5.949 ± 0.526 g/kg
